For assay [1], the target named is Human mTOR (FLAG-TOR) (Homo sapiens, UniProt P42345). Nature of the assay: mTOR kinase assay (DELFIA format, purified enzyme). It counts as biochemical. The conditions noted are these: read-out: IC50 mTOR.
Assay [2] deals with PI3K-α (Homo sapiens, UniProt P42336). Nature of the assay: PI3K-alpha fluorescence polarization assay. The conditions noted are these: read-out: IC50 PI3Kα.
The target in assay [3] is PI3K-γ (Homo sapiens, UniProt P48736). Nature of the assay: PI3K-gamma fluorescence polarization assay.
Sequence of PI3K-γ (P48736 whole entry, species assumed): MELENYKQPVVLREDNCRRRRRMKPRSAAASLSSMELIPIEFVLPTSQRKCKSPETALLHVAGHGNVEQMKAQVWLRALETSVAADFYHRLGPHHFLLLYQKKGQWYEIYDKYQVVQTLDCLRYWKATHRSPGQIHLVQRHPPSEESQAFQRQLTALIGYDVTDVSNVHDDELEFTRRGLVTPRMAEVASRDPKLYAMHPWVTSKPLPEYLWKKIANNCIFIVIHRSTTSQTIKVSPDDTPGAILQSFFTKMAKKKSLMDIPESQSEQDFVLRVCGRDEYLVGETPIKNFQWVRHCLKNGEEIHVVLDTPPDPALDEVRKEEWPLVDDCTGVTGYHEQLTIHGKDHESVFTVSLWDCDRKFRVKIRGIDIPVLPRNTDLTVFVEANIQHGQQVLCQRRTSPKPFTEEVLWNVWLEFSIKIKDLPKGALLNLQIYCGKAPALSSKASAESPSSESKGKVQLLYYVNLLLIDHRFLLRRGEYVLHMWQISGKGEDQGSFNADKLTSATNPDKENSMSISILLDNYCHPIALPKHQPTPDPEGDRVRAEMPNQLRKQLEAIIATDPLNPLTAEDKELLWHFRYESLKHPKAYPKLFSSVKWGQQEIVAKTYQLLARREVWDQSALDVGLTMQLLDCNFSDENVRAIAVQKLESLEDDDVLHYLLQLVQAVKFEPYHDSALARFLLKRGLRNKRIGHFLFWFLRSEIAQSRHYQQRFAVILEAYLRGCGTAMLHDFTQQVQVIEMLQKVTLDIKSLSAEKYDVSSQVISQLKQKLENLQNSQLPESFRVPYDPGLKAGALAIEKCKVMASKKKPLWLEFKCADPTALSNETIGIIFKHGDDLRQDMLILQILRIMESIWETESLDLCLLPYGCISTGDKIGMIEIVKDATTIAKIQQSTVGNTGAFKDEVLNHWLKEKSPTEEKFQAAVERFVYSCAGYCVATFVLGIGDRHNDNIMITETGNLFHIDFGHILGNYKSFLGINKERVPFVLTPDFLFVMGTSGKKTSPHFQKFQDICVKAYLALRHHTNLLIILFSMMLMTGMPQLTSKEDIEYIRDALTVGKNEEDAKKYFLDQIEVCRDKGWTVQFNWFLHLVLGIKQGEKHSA

pIC50: −log10 of the molar value. Read-outs that look alike come from different tables or passages of the source.

Sequence of PI3K-α (P42336 whole entry, species assumed): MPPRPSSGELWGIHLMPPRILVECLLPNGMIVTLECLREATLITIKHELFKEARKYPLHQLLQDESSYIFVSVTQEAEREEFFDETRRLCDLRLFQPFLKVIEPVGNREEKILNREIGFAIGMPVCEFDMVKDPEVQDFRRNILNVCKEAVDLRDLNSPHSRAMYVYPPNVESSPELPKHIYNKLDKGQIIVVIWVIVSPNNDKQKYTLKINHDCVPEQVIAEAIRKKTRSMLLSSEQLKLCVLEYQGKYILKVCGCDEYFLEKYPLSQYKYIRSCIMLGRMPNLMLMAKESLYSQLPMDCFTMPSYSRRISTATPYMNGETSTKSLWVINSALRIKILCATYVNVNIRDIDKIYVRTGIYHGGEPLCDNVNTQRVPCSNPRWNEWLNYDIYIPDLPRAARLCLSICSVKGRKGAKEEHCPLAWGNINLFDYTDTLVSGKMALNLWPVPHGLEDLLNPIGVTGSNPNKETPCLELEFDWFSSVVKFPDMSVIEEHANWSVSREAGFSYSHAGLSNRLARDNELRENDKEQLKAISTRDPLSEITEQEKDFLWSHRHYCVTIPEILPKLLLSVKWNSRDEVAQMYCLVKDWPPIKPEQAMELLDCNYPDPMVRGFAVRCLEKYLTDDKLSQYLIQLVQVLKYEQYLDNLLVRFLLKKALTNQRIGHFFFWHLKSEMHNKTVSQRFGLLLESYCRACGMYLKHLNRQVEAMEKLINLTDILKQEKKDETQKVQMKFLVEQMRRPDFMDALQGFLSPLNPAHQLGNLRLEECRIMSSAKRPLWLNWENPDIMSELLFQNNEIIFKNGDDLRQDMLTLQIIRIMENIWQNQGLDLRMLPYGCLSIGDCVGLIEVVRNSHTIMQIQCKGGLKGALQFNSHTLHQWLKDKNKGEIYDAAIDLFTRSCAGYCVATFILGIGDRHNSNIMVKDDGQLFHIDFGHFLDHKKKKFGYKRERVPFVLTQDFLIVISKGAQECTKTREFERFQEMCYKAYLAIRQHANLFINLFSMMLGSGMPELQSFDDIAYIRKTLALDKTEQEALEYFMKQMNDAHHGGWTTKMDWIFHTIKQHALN
Sequence of PI3K-α (P27986 whole entry partner, species assumed): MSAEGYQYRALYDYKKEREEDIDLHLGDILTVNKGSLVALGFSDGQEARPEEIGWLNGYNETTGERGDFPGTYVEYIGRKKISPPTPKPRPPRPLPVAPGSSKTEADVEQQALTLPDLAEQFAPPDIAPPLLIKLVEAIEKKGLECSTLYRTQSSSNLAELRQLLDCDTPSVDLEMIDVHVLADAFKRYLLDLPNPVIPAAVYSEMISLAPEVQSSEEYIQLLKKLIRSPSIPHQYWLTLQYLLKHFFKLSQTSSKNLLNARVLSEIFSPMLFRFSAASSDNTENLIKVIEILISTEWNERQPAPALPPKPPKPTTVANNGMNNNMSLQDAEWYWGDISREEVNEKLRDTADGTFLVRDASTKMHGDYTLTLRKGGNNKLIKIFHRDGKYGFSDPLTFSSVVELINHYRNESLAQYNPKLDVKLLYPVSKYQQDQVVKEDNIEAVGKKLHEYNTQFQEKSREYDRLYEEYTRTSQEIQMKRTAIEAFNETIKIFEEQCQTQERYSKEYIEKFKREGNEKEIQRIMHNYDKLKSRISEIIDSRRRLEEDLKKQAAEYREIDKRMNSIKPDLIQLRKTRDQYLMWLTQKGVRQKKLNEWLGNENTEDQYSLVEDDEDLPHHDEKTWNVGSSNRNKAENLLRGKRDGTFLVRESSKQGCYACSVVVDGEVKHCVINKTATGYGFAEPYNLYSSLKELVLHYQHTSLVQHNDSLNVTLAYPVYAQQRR
Sequence of Human mTOR (FLAG-TOR) (P42345 1360-2549 limits assumed): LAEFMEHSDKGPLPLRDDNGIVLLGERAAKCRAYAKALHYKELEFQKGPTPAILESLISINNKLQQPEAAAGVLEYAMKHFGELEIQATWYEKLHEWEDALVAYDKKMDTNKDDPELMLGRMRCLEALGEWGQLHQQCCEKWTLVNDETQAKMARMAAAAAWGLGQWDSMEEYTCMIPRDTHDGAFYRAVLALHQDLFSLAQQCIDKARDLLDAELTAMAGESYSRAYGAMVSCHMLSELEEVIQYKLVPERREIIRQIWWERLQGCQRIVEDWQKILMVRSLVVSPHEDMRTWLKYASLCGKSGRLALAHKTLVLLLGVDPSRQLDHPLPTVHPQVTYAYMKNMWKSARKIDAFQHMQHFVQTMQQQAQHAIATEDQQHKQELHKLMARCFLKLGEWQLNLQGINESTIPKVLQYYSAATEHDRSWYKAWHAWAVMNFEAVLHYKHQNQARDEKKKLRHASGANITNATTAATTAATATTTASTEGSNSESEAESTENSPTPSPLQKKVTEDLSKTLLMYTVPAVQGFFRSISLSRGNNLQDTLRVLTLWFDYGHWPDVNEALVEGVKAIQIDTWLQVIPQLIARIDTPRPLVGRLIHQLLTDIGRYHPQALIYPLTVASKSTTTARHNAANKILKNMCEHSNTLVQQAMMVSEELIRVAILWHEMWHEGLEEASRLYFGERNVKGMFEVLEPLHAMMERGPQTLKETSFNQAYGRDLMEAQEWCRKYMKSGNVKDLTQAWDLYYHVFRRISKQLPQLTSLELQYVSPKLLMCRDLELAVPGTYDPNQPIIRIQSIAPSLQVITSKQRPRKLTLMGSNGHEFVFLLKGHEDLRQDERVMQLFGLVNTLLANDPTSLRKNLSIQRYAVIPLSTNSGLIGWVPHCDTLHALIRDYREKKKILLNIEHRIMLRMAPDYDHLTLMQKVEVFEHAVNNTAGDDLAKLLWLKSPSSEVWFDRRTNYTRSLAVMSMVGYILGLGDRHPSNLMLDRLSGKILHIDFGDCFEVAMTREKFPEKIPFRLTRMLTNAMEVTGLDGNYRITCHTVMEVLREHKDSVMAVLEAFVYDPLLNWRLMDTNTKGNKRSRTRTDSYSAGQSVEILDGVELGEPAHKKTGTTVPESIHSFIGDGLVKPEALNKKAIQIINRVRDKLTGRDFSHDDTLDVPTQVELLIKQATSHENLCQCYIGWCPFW

As for `CCCC1CCN(C(=O)c2ccc(NC(=O)Nc3ccc(-c4nc(N5CCOC[C@@H]5C)nc(N5CCOC[C@@H]5C)n4)cc3)cc2)CC1` [Example 636, 1-(4-{4,6-bis[(3S)-3-methylmorpholin-4-yl]-1,3,5-triazin-2-yl}phenyl)-3-{4-[(4-propylpiperidin-1-yl)carbonyl]phenyl}urea], the figures for the pIC50 in assay [1], in assay [2] and in assay [3] (read-out: IC50 PI3Kγ) were 7.57, 6.64 and 6.33, respectively.
On to `O=C(Nc1ccncc1)Nc1ccc(-c2nc(N3CCOCC3)nc(N3CCN(C45CC6CC(CC(C6)C4)C5)CC3)n2)cc1` [Example 640, 1-{4-[4-morpholin-4-yl-6-(4-tricyclo[3.3.1.13,7]dec-1-ylpiperazin-1-yl)-1,3,5-triazin-2-yl]phenyl}-3-pyridin-4-ylurea], for which the pIC50 in assay [1] was 5.55; in assay [2], 6.46; in assay [3] (read-out: IC50 PI3Kγ), 6.10.
The matching figures for `COC(=O)c1ccc(NC(=O)Nc2ccc(-c3nc(N4CCOCC4)nc(N4CCN(C(=O)N(C)C)CC4)n3)cc2)cc1` [Example 641, methyl 4-{[(4-{4-[4-(dimethylcarbamoyl)piperazin-1-yl]-6-morpholin-4-yl-1,3,5-triazin-2-yl}phenyl)carbamoyl]amino}benzoate]: 8.15, 7.05 and 6.56.
In the same order, the values of `CN(C)C(=O)N1CCN(c2nc(-c3ccc(NC(=O)Nc4ccncc4)cc3)nc(N3CCOCC3)n2)CC1` [Example 642, N,N-dimethyl-4-(4-morpholin-4-yl-6-{4-[(pyridin-4-ylcarbamoyl)amino]phenyl}-1,3,5-triazin-2-yl)piperazine-1-carboxamide] are 9.00, 7.16 and 6.59.
Consider `CCCC1CCN(C(=O)c2ccc(NC(=O)Nc3ccc(-c4nc(N5CCOCC5)nc(N5CCN(C(=O)N(C)C)CC5)n4)cc3)cc2)CC1` [Example 645, N,N-dimethyl-4-(4-morpholin-4-yl-6-{4-[({4-[(4-propylpiperidin-1-yl)carbonyl]phenyl}carbamoyl)amino]phenyl}-1,3,5-triazin-2-yl)piperazine-1-carboxamide], for which the pIC50 was 6.92 in assay [1], 6.98 in assay [2] and 6.64 in assay [3] (read-out: IC50 PI3Kγ).
The matching figures for `CCS(=O)(=O)N1CCN(c2nc(-c3ccc(NC(=O)Nc4ccncc4)cc3)nc(N3CCOCC3)n2)CC1` [Example 650, 1-(4-{4-[4-(ethylsulfonyl)piperazin-1-yl]-6-morpholin-4-yl-1,3,5-triazin-2-yl}phenyl)-3-pyridin-4-ylurea]: 7.66, 7.63 and 6.99.
`CCS(=O)(=O)N1CCN(c2nc(-c3ccc(NC(=O)Nc4ccc(C(=O)OC)cc4)cc3)nc(N3CCOCC3)n2)CC1` [Example 651, methyl 4-{[(4-{4-[4-(ethylsulfonyl)piperazin-1-yl]-6-morpholin-4-yl-1,3,5-triazin-2-yl}phenyl)carbamoyl]amino}benzoate]: the values for the pIC50 in assay [1], in assay [2] and in assay [3] (read-out: IC50 PI3Kγ) were 7.85, 7.15 and 6.61, respectively.
Consider `CCS(=O)(=O)N1CCN(c2nc(-c3ccc(NC(=O)Nc4ccc(C(=O)O)cc4)cc3)nc(N3CCOCC3)n2)CC1` [Example 652, 4-{[(4-{4-[4-(ethylsulfonyl)piperazin-1-yl]-6-morpholin-4-yl-1,3,5-triazin-2-yl}phenyl)carbamoyl]amino}benzoic acid], for which the pIC50 in assay [1] is 8.40; in assay [2], 7.44; in assay [3] (read-out: IC50 PI3Kγ) it was 7.07.
As to `CCS(=O)(=O)N1CCN(c2nc(-c3ccc(NC(=O)Nc4ccc(C(=O)NCCCN(C)C)cc4)cc3)nc(N3CCOCC3)n2)CC1` [Example 653, N-[3-(dimethylamino)propyl]-4-{[(4-{4-[4-(ethylsulfonyl)piperazin-1-yl]-6-morpholin-4-yl-1,3,5-triazin-2-yl}phenyl)carbamoyl]amino}benzamide], the pIC50 was 8.15 in assay [1], 8.39 in assay [2] and 7.47 in assay [3] (read-out: IC50 PI3Kγ).
Take `CCS(=O)(=O)N1CCN(c2nc(-c3ccc(NC(=O)Nc4ccc(C(=O)NCCN(C)C)cc4)cc3)nc(N3CCOCC3)n2)CC1` [Example 654, N-[2-(dimethylamino)ethyl]-4-{[(4-{4-[4-(ethylsulfonyl)piperazin-1-yl]-6-morpholin-4-yl-1,3,5-triazin-2-yl}phenyl)carbamoyl]amino}benzamide]: the values for the pIC50 in assay [1], in assay [2] and in assay [3] (read-out: IC50 PI3Kγ) were 8.10, 8.22 and 7.15, respectively.
With `CC(C)N1CCCN(c2nc(-c3ccc(NC(=O)Nc4ccc(C(=O)O)cc4)cc3)nc(N3CCOCC3)n2)CC1` [Example 655, 4-{[(4-{4-[4-(1-methylethyl)-1,4-diazepan-1-yl]-6-morpholin-4-yl-1,3,5-triazin-2-yl}phenyl)carbamoyl]amino}benzoic acid], the pIC50 is 6.20 in assay [1], 7.04 in assay [2] and 6.13 in assay [3] (read-out: IC50 PI3Kγ).
In the same order, the values of `COC(=O)c1ccc(NC(=O)Nc2ccc(-c3nc(N4CCOCC4)nc(N4CCC(NC(C)=O)CC4)n3)cc2)cc1` [Example 656, methyl 4-{[(4-{4-[4-(acetylamino)piperidin-1-yl]-6-morpholin-4-yl-1,3,5-triazin-2-yl}phenyl)carbamoyl]amino}benzoate] are 7.72, 7.14 and 6.19.
For the compound `CC(C)N1CCCN(c2nc(-c3ccc(NC(=O)Nc4ccc(C(=O)N5CCN(C)CC5)cc4)cc3)nc(N3CCOCC3)n2)CC1` [Example 657, 1-(4-{4-[4-(1-methylethyl)-1,4-diazepan-1-yl]-6-morpholin-4-yl-1,3,5-triazin-2-yl}phenyl)-3-{4-[(4-methylpiperazin-1-yl)carbonyl]phenyl}urea], the pIC50 in assay [1] was 6.41; in assay [2] it was 7.94; in assay [3] (read-out: IC50 PI3Kγ), 6.89.
The matching figures for `CC(=O)NC1CCN(c2nc(-c3ccc(NC(=O)Nc4ccncc4)cc3)nc(N3CCOCC3)n2)CC1` [Example 658, N-[1-(4-morpholin-4-yl-6-{4-[(pyridin-4-ylcarbamoyl)amino]phenyl}-1,3,5-triazin-2-yl)piperidin-4-yl]acetamide]: 7.70, 7.38 and 6.58.
With `CC(=O)NC1CCN(c2nc(-c3ccc(NC(=O)Nc4ccc(C(=O)O)cc4)cc3)nc(N3CCOCC3)n2)CC1` [Example 659, 4-{[(4-{4-[4-(acetylamino)piperidin-1-yl]-6-morpholin-4-yl-1,3,5-triazin-2-yl}phenyl)carbamoyl]amino}benzoic acid], the pIC50 in assay [1] was 6.14; in assay [2], 5.44; in assay [3] it was not above 5.00.
For the compound `CC(C)N1CCCN(c2nc(-c3ccc(NC(=O)Nc4ccc(C(=O)NCCN(C)C)cc4)cc3)nc(N3CCOCC3)n2)CC1` [Example 660, N-[2-(dimethylamino)ethyl]-4-{[(4-{4-[4-(1-methylethyl)-1,4-diazepan-1-yl]-6-morpholin-4-yl-1,3,5-triazin-2-yl}phenyl)carbamoyl]amino}benzamide], the pIC50 in assay [1] is 6.52; in assay [2] it was 8.12; in assay [3] (read-out: IC50 PI3Kγ), 6.77.
Turning to `CC(=O)NC1CCN(C(=O)c2ccc(NC(=O)Nc3ccc(-c4nc(N5CCOCC5)nc(N5CCCN(C(C)C)CC5)n4)cc3)cc2)CC1` [Example 661, N-{1-[(4-{[(4-{4-[4-(1-methylethyl)-1,4-diazepan-1-yl]-6-morpholin-4-yl-1,3,5-triazin-2-yl}phenyl)carbamoyl]amino}phenyl)carbonyl]piperidin-4-yl}acetamide], the values for the pIC50 in assay [1], in assay [2] and in assay [3] (read-out: IC50 PI3Kγ) were 6.24, 7.25 and 6.34, respectively.
Regarding `CCN1CCN(C(=O)c2ccc(NC(=O)Nc3ccc(-c4nc(N5CCOCC5)nc(N5CCCN(C(C)C)CC5)n4)cc3)cc2)CC1` [Example 662, 1-{4-[(4-ethylpiperazin-1-yl)carbonyl]phenyl}-3-(4-{4-[4-(1-methylethyl)-1,4-diazepan-1-yl]-6-morpholin-4-yl-1,3,5-triazin-2-yl}phenyl)urea], the pIC50 was 6.11 in assay [1], 7.46 in assay [2] and 6.71 in assay [3] (read-out: IC50 PI3Kγ).
Regarding `CC(C)N1CCN(C(=O)c2ccc(NC(=O)Nc3ccc(-c4nc(N5CCOCC5)nc(N5CCCN(C(C)C)CC5)n4)cc3)cc2)CC1` [Example 663, 1-(4-{4-[4-(1-methylethyl)-1,4-diazepan-1-yl]-6-morpholin-4-yl-1,3,5-triazin-2-yl}phenyl)-3-(4-{[4-(1-methylethyl)piperazin-1-yl]carbonyl}phenyl)urea], the pIC50 in assay [1] is 6.23; in assay [2], 7.33; in assay [3] (read-out: IC50 PI3Kγ), 6.53.
Take `CCCCN1CCN(C(=O)c2ccc(NC(=O)Nc3ccc(-c4nc(N5CCOCC5)nc(N5CCCN(C(C)C)CC5)n4)cc3)cc2)CC1` [Example 665, 1-{4-[(4-butylpiperazin-1-yl)carbonyl]phenyl}-3-(4-{4-[4-(1-methylethyl)-1,4-diazepan-1-yl]-6-morpholin-4-yl-1,3,5-triazin-2-yl}phenyl)urea]: the pIC50 in assay [1] is 6.35; in assay [2], 7.15; in assay [3] (read-out: IC50 PI3Kγ) it was 6.55.
`COC(=O)c1ccc(NC(=O)Nc2ccc(-c3nc(N4CCOCC4)nc(N4C5CCC4COC5)n3)cc2)cc1` [Example 693, methyl 4-[({4-[4-morpholin-4-yl-6-(3-oxa-8-azabicyclo[3.2.1]oct-8-yl)-1,3,5-triazin-2-yl]phenyl}carbamoyl)amino]benzoate]: the pIC50 in assay [1] was 8.87; in assay [2], 7.16; in assay [3] (read-out: IC50 PI3Kγ) it was 6.54.
With `CN1CCN(c2ccc(NC(=O)Nc3ccc(-c4nc(NS(=O)(=O)c5ccccc5)nc(N5CCOCC5)n4)cc3)cc2)CC1` [Example 782, N-{4-[4-({[4-(4-methylpiperazin-1-yl)phenyl]carbamoyl}amino)phenyl]-6-morpholin-4-yl-1,3,5-triazin-2-yl}benzenesulfonamide], the pIC50 in assay [1] was 6.96; in assay [2] it was 6.90; in assay [3] (read-out: IC50 PI3Kγ), 6.60.

Values taken from patent US20090304692A1, “TRIAZINE COMPOUNDS AS PI3 KINASE AND MTOR INHIBITORS” (Wyeth, priority 2008, published 2009).
